Measured values published in patent US20240285599A1, “Mature-Hepatocyte Transdifferentiation Suppressing Composition” (OSAKA UNIVERSITY, priority 2021, published 2024).

Experiments:
[1] = system: TRAF3/PTEN knockdown HepG2 cell; assay: KRT19 mRNA quantification and immunoblotting (P52) in TRAF3/PTEN knockdown HepG2; assay type: cell-based, human; settings: HepG2 (PTKD #1); for increase in expression of P52 by knockdown of TRAF3 and PTEN: western blot
Experimental: (§1) The transfection of siRNA or a plasmid into cells was performed with Lipofectamine RNAiMAX Transfection Reagent (Thermo Fisher Scientific, Inc., USA) or Lipofectamine 2000 (Thermo Fisher Scientific, Inc., USA), respectively, and with Opti-MEM (Thermo Fisher Scientific, Inc., USA). The transfection of the siRNA was performed as follows: the cells were dispersed at a concentration of 100,000 cells/mL; 10 μM of the siRNA was mixed into 100 μL of the Opti-MEM at a ratio of 1 μL, and the mixture was left at rest for 5 minutes; and then 3 μL of the RNAiMAX was mixed into the mixture, and the whole was left at rest for 15 minutes, followed by administration to the supernatant of the previously dispersed cells. Further, a medium change was performed 24 hours thereafter.
(§2) A procedure for western blotting is as described in the previous report (Tanaka S, et al. Hepatology. 2016; 64(6): 1994-2014). The protein extracts of cells and animal tissues were prepared by using a lysis buffer having added thereto a protease inhibitor (Nacalai Tesque, Inc., Japan) and a phosphatase inhibitor (Nacalai Tesque, Inc., Japan). In western blotting for the detection of NIK, MG-132 (ChemScene, USA) was administered at a concentration of 5 μM 4 hours before protein recovery. The following antibodies were used in immunodetection: TRAF3 (1:1,000 Cell Signaling, #4729), PTEN (1:1,000 Cell Signaling, #9188), KRT19 (1:50,000 Abcam, #ab52625), p100/p52 (1:1,000 Cell Signaling, #4882), NIK (1:1,000 Cell Signaling, #4994), and β-actin (1:10,000 Sigma-Aldrich Co., LLC, #A5316). Anti-mouse IgG, HRP-linked whole Ab sheep (Cytiva, Japan), or anti-rabbit IgG, HRP-linked whole Ab donkey (Cytiva, Japan) was used as a secondary antibody, and luminescence analysis was performed with SuperSignal (trademark) West Pico PLUS Chemiluminescent Substrate (Thermo Fisher Scientific, Inc., USA).
(§3) Total RNA was extracted from a cell line and a human liver tissue with RNeasy Mini Kit (QIAGEN N.V., Nederland). Then, 1 μg of the total RNA was reverse-transcribed with ReverTra Ace qPCR RT Kit (Toyobo Co., Ltd., Tokyo) to synthesize complementary DNA. The mRNA expression of each of the following genes was analyzed through use of a TaqMan gene expression assay: human GAPDH (Hs02758991), human TRAF3 (Hs00936781), human PTEN (Hs02621230), human KRT19 (Hs00761767), human NIK (Hs01089753), mouse Gapdh (Mm09999915), mouse Traf3 (Mm00495752), mouse Pten (Mm00477208), mouse Krt19 (Mm00492980), mouse NIK (Mm00444166), and mouse Alb (Mm00802090). The gene expression amount of a human and the gene expression amount of a mouse were normalized to the expression amount of GAPDH.
The effect of TRAF3/PTEN inhibition on the expression of a bile duct marker in each of a primary human hepatocyte (hereinafter also referred to as “PHH”) and a human hepatoma cell line HepG2 cell (hereinafter also referred to as “HepG2”) was evaluated. The PHH and the HepG2 are each a mature hepatocyte having an albumin-producing ability. The TRAF3 and PTEN of each of the HepG2 and the PHH were knocked down with siRNA. The term “[…]” means a HepG2 or a PHH having introduced thereinto siRNA Traf3 #2 and Pten #1 (hereinafter also referred to as “PTKD #1HepG2” and “PTKD #1PHH” respectively). The term “PTKD #2” means a HepG2 or a PHH having introduced thereinto the siRNA Traf3 #2 and Pten #3 (hereinafter also referred to as “PTKD #2HepG2” and “PTKD #2PHH” respectively). All the siRNAs were obtained from Thermo Fisher Scientific, Inc. The sequence of each of the siRNAs is described below.
Specifically, 24 hours after the start of the culture of each of the PTKD #1HepG2 and the PTKD #1PHH obtained in Test Example 5, NIKSMI described above was added at a concentration of 9 μM. 48 Hours after that, the cells were recovered, and the mRNA of KRT19 was quantified, followed by immunoblotting. […]

[2] = system: TRAF3/PTEN knockdown primary human hepatocyte (PHH); assay: KRT19 mRNA quantification and immunoblotting (P52) in TRAF3/PTEN knockdown primary human hepatocyte; assay type: cell-based; settings: PHH (PTKD #1); for increase in expression of P52 by knockdown of TRAF3 and PTEN: western blot
Experimental: Human hepatocyte chimeric mice were generated in accordance with the protocol of the previous report (Hasegawa M, et al. Biochem Biophys Res Commun. 2011; 405(3): 405-410). Ganciclovir was administered to each of highly immunocompromised NOG mice (TK-NOG) each having a liver in which a herpes simplex virus type 1 thymidine kinase transgene had been expressed to induce liver injury, followed by the transplantation of human hepatocytes. As described in the previous report (Murai K, et al. Sci Rep. 2020; 10(1): 941), primary human hepatocytes were collected from the human hepatocyte chimeric mice each having a chimeric liver rate of 90% or more by using a two-step collagenase-pronase reflux method. It was recognized by FACS that the human hepatocytes accounted for 90% or more of the collected cells. Those cells were spread on a collagen-coated dish and cultured.
as §1, §2, §3
The effect of TRAF3/PTEN inhibition on the expression of a bile duct marker in each of a primary human hepatocyte (hereinafter also referred to as “PHH”) and a human hepatoma cell line HepG2 cell (hereinafter also referred to as “HepG2”) was evaluated. The PHH and the HepG2 are each a mature hepatocyte having an albumin-producing ability. The TRAF3 and PTEN of each of the HepG2 and the PHH were knocked down with siRNA. […]

[3] = NIK siRNA transfected, 72 h, FIG. 13
[4] = NIK siRNA transfected, cells recovered after 72 h culture, FIG. 13
[5] = NIKSMI 9 μM added 24 h after start of culture, cells recovered 48 h later, FIG. 11

NIK KD #2: siRNA of NIK, SEQ ID NO: 4 (sense) and 5 (antisense), from Thermo Fisher Scientific (sense GCAAAGAGCAAGAACCAAAUU; antisense UUUGGUUCUUGCUCUUUGCGU; listed as RNA, chemistry not given here)
significantly suppressed: increase in expression of P52 by knockdown of TRAF3 and PTEN [1, 3] | increase in expression of KRT19 by knockdown of TRAF3 and PTEN [1, 4] | increase in expression of P52 by knockdown of TRAF3 and PTEN [2, 3] | increase in expression of KRT19 by knockdown of TRAF3 and PTEN [2, 4]

NIK KD #1: siRNA of NIK, SEQ ID NO: 2 (sense) and 3 (antisense), from Thermo Fisher Scientific (sense CAAACGCAAAGAGCAAGAAUU; antisense UUCUUGCUCUUUGCGUUUGCA; listed as RNA, chemistry not given here)
significantly suppressed: increase in expression of P52 by knockdown of TRAF3 and PTEN [1, 3] | increase in expression of KRT19 by knockdown of TRAF3 and PTEN [1, 4] | increase in expression of P52 by knockdown of TRAF3 and PTEN [2, 3] | increase in expression of KRT19 by knockdown of TRAF3 and PTEN [2, 4]

COc1cc(C(N)=O)nc(-c2cccc(C#C[C@]3(O)CCN(C)C3=O)c2)c1 [NIKSMI, (R)-6-(3-((3-hydroxy-1-methyl-2-oxopyrrolidin-3-yl)ethynyl)phenyl)-4-methoxypicolinamide]
significantly suppressed: increase in expression of KRT19 by knockdown of TRAF3 and PTEN [1, 5] | increase in expression of P52 by knockdown of TRAF3 and PTEN ([1]; NIKSMI 9 μM, 48 h, FIG. 11) | increase in expression of KRT19 by knockdown of TRAF3 and PTEN [2, 5] | increase in expression of P52 by knockdown of TRAF3 and PTEN ([2]; NIKSMI 9 μM, 48 h, FIG. 11)
